Data published in PubChem BioAssay AID2260 (Sanford-Burnham Center for Chemical Genomics, 2010).
Calls of active or inactive are those of the source. No rule for the calls is given here.

What follows are compounds tested on MCF-7/NOD2 cells, MDP-induced IL-8 secretion (assay: inhibition of NOD2-driven IL-8 release, SAR follow-up, MCF-7/NOD2 cells, MDP stimulus (AID 2260)).

Row | Structure (SMILES) | IC50
1 | COc1ccc(S(=O)(=O)n2c(N)nc3ccccc32)cc1 | > 5 µM (inactive)
2 | Cc1ccc(S(=O)(=O)n2c(N)nc3cc(C)c(C)cc32)cc1 | > 5 µM (inactive)
3 | Nc1nc2ccccc2n1S(=O)(=O)c1ccc([N+](=O)[O-])cc1 | > 5 µM (inactive)
4 | Cc1ccc(S(=O)(=O)n2c(N)nc3ccccc32)cc1 | > 25 µM (inactive)
5 | O=C(O)c1c(NC(=O)N2CCOCC2)sc2c1CCCC2 | > 25 µM (inactive)
6 | Nc1nc2ccccc2n1S(=O)(=O)c1ccccc1 | > 5 µM (inactive)
